# Source: PubChem BioAssay (NCI)
#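 Protocol summary: plate cells (96-well), add compound at 5 concentrations, incubate 48 h, interpolate endpoints linearly. Definition used: TGI = concentration required for complete inhibition of growth.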
# How the values were obtained:
# Assay in all cases: NCI-60 cell line screen, 48 h
# [1] = test system: TK-10 renal
# [2] = test system: HCT-116 colon
# [3] = test system: SNB-75 CNS
# [4] = test system: HS 578T breast
# [5] = test system: UACC-257 melanoma
# [6] = test system: MCF7 breast
# [7] = test system: PC-3 prostate
# [8] = test system: SK-MEL-5 melanoma
# [9] = test system: HOP-62 NSCLC
# [10] = test system: U251 CNS
# [11] = test system: 786-0 renal
# [12] = test system: UACC-62 melanoma
# [13] = test system: A498 renal
# [14] = test system: DU-145 prostate
# [15] = test system: SN12C renal
# [16] = test system: NCI-H23 lung
# [17] = test system: NCI-H226 lung
# [18] = test system: HCC-2998 colon
# [19] = test system: HL-60(TB) leukemia
# [20] = test system: BT-549 breast
# [21] = test system: MDA-N
# [22] = test system: COLO 205 colon
# [23] = test system: SNB-19 CNS
# [24] = test system: LOX IMVI melanoma
# [25] = test system: HT29 colon
# [26] = test system: RPMI-8226 leukemia
# [27] = test system: SK-MEL-28 melanoma
# [28] = test system: SF-539 CNS
# [29] = test system: NCI-H522 lung
# [30] = test system: CCRF-CEM leukemia
# [31] = test system: NCI/ADR-RES ovarian
# [32] = test system: IGROV1 ovarian
# [33] = test system: SR leukemia
# [34] = test system: HCT-15 colon
# [35] = test system: KM12 colon
# [36] = test system: NCI-H460 lung
# [37] = test system: HOP-92 NSCLC
# [38] = test system: MALME-3M melanoma
# [39] = test system: M14 melanoma
# [40] = test system: MOLT-4 leukemia
# [41] = test system: SK-MEL-2 melanoma
# [42] = test system: A549 NSCLC
# [43] = test system: UO-31 renal
# [44] = test system: K-562 leukemia
# [45] = test system: MDA-MB-231 breast
# [46] = test system: SW-620 colon
# [47] = test system: MDA-MB-435
# [48] = test system: RXF 393 renal
# [49] = test system: OVCAR-5 ovarian
# [50] = test system: OVCAR-4 ovarian
# [51] = test system: SF-295 CNS
# [52] = test system: EKVX NSCLC
# [53] = test system: SK-OV-3 ovarian
# [54] = test system: CAKI-1 renal
# [55] = test system: SF-268 CNS
# [56] = test system: T-47D breast
# [57] = test system: ACHN renal
# [58] = test system: OVCAR-3 ovarian
# [59] = test system: OVCAR-8 ovarian
# [60] = test system: DMS 273 small cell lung
# [61] = test system: M19-MEL melanoma
# [62] = test system: KM20L2 colon
# [63] = test system: DMS 114 small cell lung
# [64] = test system: DLD-1 colon
# [65] = test system: LXFL 529 NSCLC
# [66] = test system: HOP-18 NSCLC
compound,measurement,setting,value
COc1cc(Br)cc2nc(-c3cccs3)oc12,TGI,[1],> 77.6 µM
same,TGI,[2],> 100 µM
same,TGI,[3],> 85.9 µM
same,TGI,[4],> 68 µM
same,TGI,[5],> 100 µM
same,TGI,[6],> 100 µM
same,TGI,[7],> 100 µM
same,TGI,[8],> 100 µM
same,TGI,[9],> 92.1 µM
same,TGI,[10],> 100 µM
same,TGI,[11],> 100 µM
same,TGI,[12],> 100 µM
same,TGI,[13],> 100 µM
same,TGI,[14],> 100 µM
same,TGI,[15],> 100 µM
same,TGI,[16],> 100 µM
same,TGI,[17],> 100 µM
same,TGI,[18],> 100 µM
same,TGI,[19],> 100 µM
same,TGI,[20],> 100 µM
same,TGI,[21],> 100 µM
same,TGI,[22],> 100 µM
same,TGI,[23],> 100 µM
same,TGI,[24],> 100 µM
same,TGI,[25],> 100 µM
same,TGI,[26],> 100 µM
same,TGI,[27],> 100 µM
same,TGI,[28],> 100 µM
same,TGI,[29],> 100 µM
same,TGI,[30],> 100 µM
same,TGI,[31],> 100 µM
same,TGI,[32],> 100 µM
same,TGI,[33],> 100 µM
same,TGI,[34],> 100 µM
same,TGI,[35],> 100 µM
same,TGI,[36],> 100 µM
same,TGI,[37],> 100 µM
same,TGI,[38],> 100 µM
same,TGI,[39],> 100 µM
same,TGI,[40],> 100 µM
same,TGI,[41],> 100 µM
same,TGI,[42],> 100 µM
same,TGI,[43],> 100 µM
same,TGI,[44],> 100 µM
same,TGI,[45],> 100 µM
same,TGI,[46],> 100 µM
same,TGI,[47],> 100 µM
same,TGI,[48],> 100 µM
same,TGI,[49],> 100 µM
same,TGI,[50],> 100 µM
same,TGI,[51],> 100 µM
same,TGI,[52],> 100 µM
same,TGI,[53],> 100 µM
same,TGI,[54],> 100 µM
same,TGI,[55],> 100 µM
same,TGI,[56],> 100 µM
same,TGI,[57],> 100 µM
same,TGI,[58],> 100 µM
same,TGI,[59],> 100 µM
CC1(O)CC2(O)C=CC3=C(C(=O)c4cccc(O)c4C3=O)C2(O)C(=O)C1O (stereo not given),TGI,[1],3.12 µM
same,TGI,[2],2.05 µM
same,TGI,[3],19.1 µM
same,TGI,[4],10.7 µM
same,TGI,[5],2.67 µM
same,TGI,[6],2.6 µM
same,TGI,[7],17.1 µM
same,TGI,[8],7.58 µM
same,TGI,[9],36.4 µM
same,TGI,[10],9.81 µM
same,TGI,[11],3.84 µM
same,TGI,[60],16.1 µM
same,TGI,[12],6.88 µM
same,TGI,[13],14.9 µM
same,TGI,[14],32.3 µM
same,TGI,[15],6.66 µM
same,TGI,[16],10.7 µM
same,TGI,[17],17.6 µM
same,TGI,[18],7.54 µM
same,TGI,[19],2.17 µM
same,TGI,[20],2.58 µM
same,TGI,[61],1.76 µM
same,TGI,[21],3.24 µM
same,TGI,[22],0.436 µM
same,TGI,[23],30.4 µM
same,TGI,[24],3.37 µM
same,TGI,[25],5.95 µM
same,TGI,[26],4.66 µM
same,TGI,[27],3.2 µM
same,TGI,[28],10 µM
same,TGI,[29],0.29 µM
same,TGI,[62],2.71 µM
same,TGI,[30],2.87 µM
same,TGI,[63],3.44 µM
same,TGI,[31],20.2 µM
same,TGI,[32],10.6 µM
same,TGI,[33],18.1 µM
same,TGI,[34],2.98 µM
same,TGI,[35],17.8 µM
same,TGI,[36],34.3 µM
same,TGI,[37],2.19 µM
same,TGI,[38],0.966 µM
same,TGI,[39],2.74 µM
same,TGI,[40],2.8 µM
same,TGI,[41],9.07 µM
same,TGI,[42],25.3 µM
same,TGI,[43],4 µM
same,TGI,[64],2.31 µM
same,TGI,[44],10.4 µM
same,TGI,[45],11.8 µM
same,TGI,[46],1.67 µM
same,TGI,[47],3.32 µM
same,TGI,[48],2.13 µM
same,TGI,[49],9.55 µM
same,TGI,[50],2.86 µM
same,TGI,[51],26.7 µM
same,TGI,[52],5.99 µM
same,TGI,[53],28.5 µM
same,TGI,[54],2.24 µM
same,TGI,[55],17.1 µM
same,TGI,[56],3.51 µM
same,TGI,[57],3.1 µM
same,TGI,[65],1.08 µM
same,TGI,[66],3.09 µM
same,TGI,[58],5.19 µM
same,TGI,[59],8.08 µM
